“And” between values parts separate entries of the source, which are not always exact repeats. Equal values may be shown once. Inconclusive results and toxic doses are left out. Rule for the calls: active = survival T/C of 150% or more; inactive = T/C below 125% in these data.
Test system: BDF1 mice, L1210 6-MP/6-TG resistant leukemia ip, survival T/C
Assay: NCI In Vivo Anticancer Drug Screen. Data for tumor model L1210 Leukemia resistant to 6-MP and 6-Thioguanine; NSC 755, NSC 752 (intraperitoneal) in B6D2F1 (BDF1) mice
Settings: endpoint: mean survival time, higher = longer survival
Procedure: The antitumor activity of compounds was measured in mice bearing transplantable tumors. Survival or tumor size were measured and the results are expressed as the measurement made in the treated group (T) divided by the measurement made in the vehicle treated control group (C). The tumor model used in this assay is L1210 Leukemia resistant to 6-MP and 6-Thioguanine; NSC 755, NSC 752 (intraperitoneal) in B6D2F1 (BDF1) mice

[1] = dose: 7.5 mg/kg/injection, schedule: Q01DX Z (ip), vehicle: carboxymethylcellulose (CMC)
[2] = dose: 12.5 mg/kg/injection, schedule: Q01DX015 (ip), vehicle: carboxymethylcellulose (CMC)
[3] = dose: 62.0 mg/kg/injection, schedule: Q01DX Z (ip), vehicle: carboxymethylcellulose (CMC)
[4] = dose: 125.0 mg/kg/injection, schedule: Q01DX Z (ip), vehicle: carboxymethylcellulose (CMC)
[5] = dose: 25.0 mg/kg/injection, schedule: Q01DX Z (ip), vehicle: carboxymethylcellulose (CMC)
[6] = dose: 50.0 mg/kg/injection, schedule: Q01DX Z (ip), vehicle: carboxymethylcellulose (CMC)
[7] = dose: 100.0 mg/kg/injection, schedule: Q01DX Z (ip), vehicle: carboxymethylcellulose (CMC)
[8] = dose: 200.0 mg/kg/injection, schedule: Q01DX Z (ip), vehicle: carboxymethylcellulose (CMC)

Measured: T/C

Clc1ccc(C(c2ccccc2Cl)C(Cl)Cl)cc1 (centres undefined)
inactive: dose: 23.0 mg/kg/injection, schedule: Q01DX Z (sc), vehicle: steriod suspending solution 94 % of control | dose: 46.0 mg/kg/injection, schedule: Q01DX Z (sc), vehicle: steriod suspending solution 97 % of control | dose: 93.0 mg/kg/injection, schedule: Q01DX Z (sc), vehicle: steriod suspending solution 103 % of control | dose: 187.0 mg/kg/injection, schedule: Q01DX Z (sc), vehicle: steriod suspending solution 101 % of control | dose: 375.0 mg/kg/injection, schedule: Q01DX Z (sc), vehicle: steriod suspending solution 104 % of control | dose: 500.0 mg/kg/injection, schedule: Q01DX Z (sc), vehicle: steriod suspending solution 100 % of control | dose: 750.0 mg/kg/injection, schedule: Q01DX Z (sc), vehicle: steriod suspending solution 96 % of control | dose: 1000.0 mg/kg/injection, schedule: Q01DX Z (sc), vehicle: steriod suspending solution 98 % of control

C[C@@H]1C[C@@H]([C@H](O)CC2CC(=O)NC(=O)C2)C(=O)[C@@H](C)C1
inactive: dose: 0.93 mg/kg/injection, schedule: Q01DX Z (ip), vehicle: carboxymethylcellulose (CMC) 101 % of control | dose: 1.87 mg/kg/injection, schedule: Q01DX Z (ip), vehicle: carboxymethylcellulose (CMC) 101 % of control | dose: 3.75 mg/kg/injection, schedule: Q01DX Z (ip), vehicle: carboxymethylcellulose (CMC) 100 % of control | [1] 101 % of control | dose: 7.5 mg/kg/injection, schedule: Q01DX Z (ip), vehicle: saline 116 % of control | dose: 15.0 mg/kg/injection, schedule: Q01DX Z (ip), vehicle: saline 114 % of control | dose: 30.0 mg/kg/injection, schedule: Q01DX Z (ip), vehicle: saline 112 % of control | dose: 60.0 mg/kg/injection, schedule: Q01DX Z (ip), vehicle: saline 92 % of control

Nc1nc(=S)c2ncn(C3OC(COC(=O)c4ccc(Cl)cc4)C(OC(=O)c4ccc(Cl)cc4)C3OC(=O)c3ccc(Cl)cc3)c2[nH]1 (centres undefined)
inactive: dose: 6.25 mg/kg/injection, schedule: Q01DX015 (ip), vehicle: carboxymethylcellulose (CMC) 88 % of control | [2] 87 % of control | dose: 100.0 mg/kg/injection, schedule: Q01DX015 (ip), vehicle: carboxymethylcellulose (CMC) 86 % of control

S=c1nc[nH]c2c1ncn2C1CCCCO1 (centres undefined)
inactive: dose: 16.0 mg/kg/injection, schedule: Q01DX Z (ip), vehicle: carboxymethylcellulose (CMC) 104 % of control | dose: 31.0 mg/kg/injection, schedule: Q01DX Z (ip), vehicle: carboxymethylcellulose (CMC) 104 % of control | [3] 107 % of control | [4] 96 % of control

Cn1cnc([N+](=O)[O-])c1Sc1nc(N)nc2nc[nH]c12
inactive: [1] 95 % of control | dose: 10.0 mg/kg/injection, schedule: Q01DX Z (ip), vehicle: carboxymethylcellulose (CMC) 92 % of control | dose: 15.0 mg/kg/injection, schedule: Q01DX Z (ip), vehicle: carboxymethylcellulose (CMC) 90 % of control | dose: 20.0 mg/kg/injection, schedule: Q01DX Z (ip), vehicle: carboxymethylcellulose (CMC) 89 % of control

CN(C)C(=S)N=Nc1c(O)[nH]c2ccccc12
inactive: [5] 107 % of control | [6] 105 % of control | [7] 91 % of control

C[C@@H]1C[C@H]2CC[C@H](O2)[C@H](C)C(=O)O[C@@H](C)C[C@@H]2CC[C@@H](O2)[C@@H](C)C(=O)O[C@H](C)C[C@H]2CC[C@H](O2)[C@H](C)C(=O)O[C@@H](C)C[C@@H]2CC[C@@H](O2)[C@@H](C)C(=O)O1
inactive: dose: 10.0 mg/kg/injection, schedule: Q01DX Z (ip), vehicle: other 101 % of control | dose: 15.0 mg/kg/injection, schedule: Q01DX Z (ip), vehicle: other 101 % of control | dose: 20.0 mg/kg/injection, schedule: Q01DX Z (ip), vehicle: other 104 % of control | dose: 30.0 mg/kg/injection, schedule: Q01DX Z (ip), vehicle: other 94 % of control | dose: 45.0 mg/kg/injection, schedule: Q01DX Z (ip), vehicle: carboxymethylcellulose (CMC) 100 % of control | dose: 90.0 mg/kg/injection, schedule: Q01DX Z (ip), vehicle: carboxymethylcellulose (CMC) 93 % of control | dose: 180.0 mg/kg/injection, schedule: Q01DX Z (ip), vehicle: carboxymethylcellulose (CMC) 96 % of control | dose: 360.0 mg/kg/injection, schedule: Q01DX Z (ip), vehicle: carboxymethylcellulose (CMC) 95 % of control

CCSc1ncc(Br)c(Sc2nc(N)nc3nc[nH]c23)n1
inactive: dose: 1.5 mg/kg/injection, schedule: Q01DX015 (ip), vehicle: carboxymethylcellulose (CMC) 112 % of control | dose: 3.0 mg/kg/injection, schedule: Q01DX015 (ip), vehicle: carboxymethylcellulose (CMC) 115 % of control | dose: 6.0 mg/kg/injection, schedule: Q01DX015 (ip), vehicle: carboxymethylcellulose (CMC) 100 % of control | [2] 100 % of control

Clc1ncnc2nc[nH]c12
inactive: dose: 12.5 mg/kg/injection, schedule: Q01DX Z (ip), vehicle: carboxymethylcellulose (CMC) 97 % of control | [5] 93 % of control | [6] 92 % of control and 104 % of control | [7] 90 % of control | dose: 200.0 mg/kg/injection, schedule: Q01DX001 (ip), vehicle: carboxymethylcellulose (CMC) 99 % of control and 104 % of control | [8] 90 % of control | dose: 267.0 mg/kg/injection, schedule: Q01DX001 (ip), vehicle: carboxymethylcellulose (CMC) 102 % of control and 107 % of control | dose: 300.0 mg/kg/injection, schedule: Q01DX Z (ip), vehicle: carboxymethylcellulose (CMC) 88 % of control | dose: 400.0 mg/kg/injection, schedule: Q01DX001 (ip), vehicle: carboxymethylcellulose (CMC) 100 % of control and 102 % of control

CC(=O)O[C@]1(C(C)=O)CC[C@H]2[C@@H]3C[C@H](C)C4=CC(=O)C=C[C@]4(C)[C@@]3(F)[C@@H](O)C[C@@]21C
inactive: dose: 37.5 mg/kg/injection, schedule: Q01DX Z (sc), vehicle: steriod suspending solution 101 % of control | dose: 100.0 mg/kg/injection, schedule: Q01DX Z (sc), vehicle: steriod suspending solution 89 % of control

CC(=O)OCC1OC(n2cnc3c(=S)nc[nH]c32)C(OC(C)=O)C1OC(C)=O (centres undefined)
inactive: [5] 104 % of control | [6] 111 % of control | [7] 108 % of control | [8] 98 % of control

COS(C)(=O)=O
inactive: dose: 25.0 mg/kg/injection, schedule: Q01DX Z (ip), vehicle: saline 105 % of control | dose: 50.0 mg/kg/injection, schedule: Q01DX Z (ip), vehicle: saline 114 % of control | dose: 75.0 mg/kg/injection, schedule: Q01DX Z (ip), vehicle: saline 116 % of control | dose: 100.0 mg/kg/injection, schedule: Q01DX Z (ip), vehicle: saline 106 % of control

CCn1cnc2c(=S)nc[nH]c21
inactive: [6] 91 % of control | dose: 75.0 mg/kg/injection, schedule: Q01DX Z (ip), vehicle: carboxymethylcellulose (CMC) 94 % of control | [7] 92 % of control | dose: 150.0 mg/kg/injection, schedule: Q01DX Z (ip), vehicle: carboxymethylcellulose (CMC) 87 % of control

Nc1ccc(C(=O)NO)cc1
inactive: dose: 112.5 mg/kg/injection, schedule: Q01DX015 (ip), vehicle: carboxymethylcellulose (CMC) 102 % of control | dose: 225.0 mg/kg/injection, schedule: Q01DX015 (ip), vehicle: carboxymethylcellulose (CMC) 91 % of control | dose: 450.0 mg/kg/injection, schedule: Q01DX015 (ip), vehicle: carboxymethylcellulose (CMC) 90 % of control | dose: 900.0 mg/kg/injection, schedule: Q01DX015 (ip), vehicle: carboxymethylcellulose (CMC) 97 % of control

CC(C)n1cnc2c(=S)nc[nH]c21
inactive: dose: 2.5 mg/kg/injection, schedule: Q01DX015 (ip), vehicle: carboxymethylcellulose (CMC) 96 % of control | dose: 5.0 mg/kg/injection, schedule: Q01DX015 (ip), vehicle: carboxymethylcellulose (CMC) 96 % of control | dose: 10.0 mg/kg/injection, schedule: Q01DX015 (ip), vehicle: carboxymethylcellulose (CMC) 96 % of control | dose: 20.0 mg/kg/injection, schedule: Q01DX015 (ip), vehicle: carboxymethylcellulose (CMC) 94 % of control | dose: 42.0 mg/kg/injection, schedule: Q01DX015 (ip), vehicle: carboxymethylcellulose (CMC) 86 % of control and 100 % of control | dose: 63.0 mg/kg/injection, schedule: Q01DX015 (ip), vehicle: carboxymethylcellulose (CMC) 86 % of control | dose: 95.0 mg/kg/injection, schedule: Q01DX015 (ip), vehicle: carboxymethylcellulose (CMC) 86 % of control

CS(=O)(=O)OCC(O)C(O)COS(C)(=O)=O (centres undefined)
inactive: [3] 103 % of control | [4] 101 % of control | dose: 250.0 mg/kg/injection, schedule: Q01DX Z (ip), vehicle: carboxymethylcellulose (CMC) 122 % of control

From PubChem BioAssay AID308 (DTP/NCI, 2004)
